According to PubChem BioAssay (NCI):
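Test compounds were applied to cells in 96-well plates for 48 hours at 5 doses. GI50 is the concentration that inhibits growth by half. TGI denotes the concentration required for complete inhibition of growth.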

Assays:
Assay in all cases: NCI anticancer screen, dose series, 48 h
SK-OV-3 ovarian = tested on: SK-OV-3 ovarian
OVCAR-3 ovarian = tested on: OVCAR-3 ovarian
HOP-92 NSCLC = tested on: HOP-92 NSCLC
M14 melanoma = tested on: M14 melanoma
NCI-H460 lung = tested on: NCI-H460 lung
LOX IMVI melanoma = tested on: LOX IMVI melanoma
MCF7 breast = tested on: MCF7 breast
A549 NSCLC = tested on: A549 NSCLC
COLO 205 colon = tested on: COLO 205 colon
SK-MEL-5 melanoma = tested on: SK-MEL-5 melanoma

SMILES	GI50 (SK-OV-3 ovarian)	TGI (SK-OV-3 ovarian)	GI50 (OVCAR-3 ovarian)	TGI (OVCAR-3 ovarian)	GI50 (HOP-92 NSCLC)	TGI (HOP-92 NSCLC)	GI50 (M14 melanoma)	TGI (M14 melanoma)	GI50 (NCI-H460 lung)	TGI (NCI-H460 lung)	GI50 (LOX IMVI melanoma)	TGI (LOX IMVI melanoma)	GI50 (MCF7 breast)	TGI (MCF7 breast)	GI50 (A549 NSCLC)	TGI (A549 NSCLC)	GI50 (COLO 205 colon)	TGI (COLO 205 colon)	GI50 (SK-MEL-5 melanoma)	TGI (SK-MEL-5 melanoma)
CC1=C([Se]CC(OC(=O)[C@@H](CO)NC(=O)OC(C)(C)C)C(=O)NC(C)(C)C)C(=O)c2ccccc2C1=O (stereo partly drawn)	1270 nM	2.55 µM	1800 nM	3.19 µM	1880 nM	3.43 µM	1660 nM	3.04 µM	456 nM	1.8 µM	1600 nM	3.02 µM	1750 nM	3.97 µM	1.81 µM	9.44 µM	1830 nM	3.3 µM	1590 nM	2.97 µM
O=C(Nc1ccccc1Br)c1cccc([N+](=O)[O-])c1O		> 57.8 µM		7.51 µM		4.99 µM		28.9 µM		> 37.9 µM		10.7 µM				> 100 µM		> 33.4 µM		5.11 µM
Cc1ccccc1N=Nc1c(O)[nH]c2ccccc12		> 100 µM		> 100 µM				> 100 µM		> 100 µM		> 100 µM		> 100 µM		> 100 µM		> 100 µM		> 100 µM
N#CC(C#N)=CSc1ccccc1		> 100 µM		> 100 µM		> 100 µM		66.8 µM		> 100 µM		26 µM				> 100 µM		55.3 µM		> 100 µM
O=C(O)CCC1(Br)CCCCC(Br)C1=O (stereo not drawn)		> 100 µM		> 100 µM		> 100 µM		> 100 µM		> 100 µM						> 100 µM		> 100 µM		> 100 µM
O=C(O)C1c2ccccc2C(C(=O)O)c2ccccc21 (stereo not drawn)		> 100 µM				> 100 µM		> 100 µM		> 100 µM		> 100 µM				> 100 µM		> 100 µM		> 100 µM
N#CN1CCC[C@H]1C(=O)N1CCc2c(-c3[nH]nc4ncccc34)cccc21	13 nM	0.0694 µM	< 10 nM	< 0.01 µM	< 10 nM	0.0809 µM	< 10 nM	0.354 µM	105 nM	11.1 µM	< 10 nM	10.6 µM	< 10 nM	11 µM	0.106 µM	> 25.1 µM			60.6 nM	0.126 µM
CC(=O)OCC1OC(OC2=C(CC=C(Cl)Cl)C(=O)c3ccccc3C2=O)C(OC(C)=O)C(OC(C)=O)C1OC(C)=O (stereo not drawn)	15100 nM	28.7 µM	2270 nM	4.88 µM	222 nM	1.59 µM	12600 nM	28 µM	12500 nM	34.4 µM	1710 nM	3.56 µM			19.5 µM	41.4 µM	13600 nM	36.3 µM	4320 nM	17 µM
C=C1C(=O)O[C@@H]2C[C@@H]1CC[C@@]1(C)O[C@@H]1CC[C@@]1(C)O[C@@H]1CC[C@@]2(C)O	30600 nM	> 100 µM	15700 nM	37.3 µM			21400 nM	42.4 µM	60300 nM	> 100 µM	15700 nM	31 µM	55200 nM	> 100 µM	73.8 µM	> 100 µM	14400 nM	31 µM	16200 nM	31.4 µM
O=C(O)C#CCO		> 100 µM		> 100 µM		> 100 µM		> 100 µM		> 100 µM		> 100 µM				> 100 µM		> 100 µM		> 100 µM
COc1ccc2c(=O)c3cc([N+](=O)[O-])ccc3n(C)c2c1				> 100 µM		> 100 µM		> 100 µM		> 100 µM		> 100 µM		> 100 µM		> 100 µM		> 100 µM		> 100 µM
CCN(CC)C(=S)SC1CCOP(=O)(N(CCCl)CCCl)N1C (stereo not drawn)		> 100 µM		> 100 µM		43.9 µM		> 54.1 µM		14.3 µM				> 100 µM		> 100 µM				30.8 µM
O=c1c2ccccc2c(=O)c2c1cc(Cl)c1[nH]c3c([nH]c12)c(Cl)cc1c(=O)c2ccccc2c(=O)c13		> 100 µM		> 100 µM				> 100 µM		> 100 µM						> 100 µM		> 100 µM		
N#CCC(=O)N/N=C1\C(=O)N(c2ccc(Cl)cc2)C(=O)C(=O)C1c1nc2ccccc2o1 (stereo not drawn)		> 100 µM		> 100 µM		> 100 µM		> 100 µM		> 100 µM						> 100 µM		> 100 µM		> 100 µM
Clc1ccc(OC2CCO2)cc1Cl (stereo not drawn)		> 100 µM		> 100 µM		> 100 µM		> 100 µM		> 100 µM						> 100 µM		> 100 µM		> 100 µM
COC(=O)[C@@]1(C)CC[C@]2(C)CC[C@]3(C)C4=CC=C5C(=CC(=O)C(O)=C5C)[C@]4(C)CC[C@@]3(C)[C@@H]2C1	775 nM	2.01 µM	169 nM	0.325 µM	163 nM	0.362 µM	198 nM	0.49 µM	274 nM	0.796 µM	174 nM	0.325 µM			1.21 µM	2.54 µM	182 nM	0.437 µM	200 nM	0.57 µM
C/C(=N/NC(=O)C(N)=O)C(CC(C(=O)Nc1ccccc1C)/C(C)=N\NC(=O)C(N)=O)C(=O)Nc1ccccc1C (stereo not drawn)		> 100 µM		> 100 µM		> 100 µM		> 100 µM		> 100 µM		> 100 µM				> 100 µM		> 100 µM		> 100 µM
COC(=O)C1CCC(Nc2cccc(C(F)(F)F)c2)=N1 (stereo not drawn)		> 100 µM		> 100 µM		> 100 µM		> 100 µM		> 100 µM		> 100 µM				> 100 µM		> 100 µM		

SMILES	GI50 (SK-OV-3 ovarian)	TGI (SK-OV-3 ovarian)	GI50 (OVCAR-3 ovarian)	TGI (OVCAR-3 ovarian)	GI50 (HOP-92 NSCLC)	TGI (HOP-92 NSCLC)	GI50 (M14 melanoma)	TGI (M14 melanoma)	GI50 (NCI-H460 lung)	TGI (NCI-H460 lung)	GI50 (LOX IMVI melanoma)	TGI (LOX IMVI melanoma)	GI50 (MCF7 breast)	TGI (MCF7 breast)	GI50 (A549 NSCLC)	TGI (A549 NSCLC)	GI50 (COLO 205 colon)	TGI (COLO 205 colon)	GI50 (SK-MEL-5 melanoma)	TGI (SK-MEL-5 melanoma)
Cc1cc(NS(=O)(=O)c2ccc(NC(=O)c3cccc4c(Nc5ccc(S(=O)(=O)Nc6cc(C)on6)cc5)c5ccccc5nc34)cc2)no1		> 100 µM		> 100 µM		41 µM		> 100 µM		> 100 µM		87.5 µM				> 100 µM		> 100 µM		> 100 µM
CC(=O)OC1C(CCl)OC(N=[N+]=[N-])C(OC(C)=O)C1OC(C)=O (stereo not drawn)		> 100 µM		> 100 µM				> 100 µM		> 100 µM						> 100 µM		> 100 µM		> 100 µM
CCC[CH2][Sn]([CH2]CCC)([O]C(=O)c1nccnc1N)[O]C(=O)c1nccnc1N	2060 nM	3.63 µM	1210 nM	2.45 µM	1160 nM	2.43 µM	1230 nM	2.49 µM	1630 nM	3.33 µM	365 nM	1.48 µM			3.52 µM	12.7 µM	899 nM	2.1 µM	1240 nM	2.49 µM
CC1=C(c2cc(C(=O)Nc3ccc(Cl)c(Cl)c3)nc(N)n2)Sc2ccccc2N1		> 100 µM		> 100 µM		> 100 µM		> 100 µM		> 100 µM		> 100 µM				> 100 µM		> 100 µM		> 100 µM
NCC1OC(OC2C(CO)OC(OC3C(O)C(N)CC(N)C3OC3OC(CO)C(O)C(O)C3N)C2O)C(N)C(O)C1O (stereo not drawn)	> 50 µg/mL	> 50 µg/mL	> 50 µg/mL	> 50 µg/mL	> 50 µg/mL	> 50 µg/mL	> 50 µg/mL	> 50 µg/mL	> 50 µg/mL	> 50 µg/mL	> 50 µg/mL	> 50 µg/mL	> 50 µg/mL	> 50 µg/mL	> 50 µg/mL	> 50 µg/mL	> 50 µg/mL	> 50 µg/mL		
CCOc1ccc(N=Nc2ccc3oc(=O)c(C(=O)Nc4ccc(OC)cc4)cc3c2)cc1		84.8 µM		67 µM								55.6 µM				> 100 µM		> 100 µM		38.8 µM
CNC(C)C(=O)N[C@H](C(=O)N1CCC[C@@H]1CN(CCc1ccccc1)C(=O)C(F)(F)F)[C@H](C)OCC#CC#CCO[C@H](C)[C@H](NC(=O)[C@H](C)NC)C(=O)N1CCC[C@H]1CN(CCc1ccccc1)C(=O)C(F)(F)F (stereo partly drawn)	< 10 nM	< 0.01 µM	1420 nM	2.86 µM	373 nM	1.61 µM	1790 nM	3.41 µM	1830 nM	3.59 µM			239 nM	1.76 µM	1.72 µM	3.27 µM	1420 nM	2.99 µM	1310 nM	2.62 µM
Cc1cc(C)cc(Sc2c([N+](=O)[O-])ncn2C)c1		75.5 µM		34.3 µM		41.7 µM		27.6 µM		> 100 µM		25.6 µM				> 100 µM		31.8 µM		26.7 µM
COc1ccc(Cc2cnc(NC(=O)c3sc4ccccc4c3Cl)s2)cc1	619 nM	> 100 µM			5260 nM	> 100 µM			365 nM	> 100 µM	1520 nM	> 100 µM	355 nM	> 100 µM	0.571 µM	> 100 µM	390 nM	13.3 µM	335 nM	3.56 µM
CC[O-].Cc1ccc2cccc([O-])c2n1.Cc1ccc2cccc([O-])c2n1.Cc1ccc2cccc([O-])c2n1.[Ti+4]	> 68900 nM	> 100 µM	34100 nM	> 100 µM	> 100000 nM	> 100 µM	22200 nM	> 53.5 µM	20200 nM	> 100 µM	18200 nM	47.9 µM			11.1 µM	20.6 µM	19500 nM	39.8 µM	22600 nM	52 µM
CC(C)(C)[Si](C)(C)O/N=C\c1ccc(O[Si](C)(C)C(C)(C)C)cc1		> 100 µM		50.9 µM				> 100 µM		> 100 µM		40.1 µM				> 100 µM		> 100 µM		> 100 µM
C[C@H]1CC(=O)C2=CCCC3(SCCCS3)[C@@H]2[C@H]1CO		> 100 µM		> 100 µM		> 100 µM		> 100 µM		> 100 µM		> 100 µM				> 100 µM		> 100 µM		> 100 µM
O=C1/C(=C\c2coc3ccccc3c2=O)c2ccccc2N1c1c(Cl)cccc1Cl	35600 nM	> 100 µM	2710 nM	10.3 µM			5280 nM	97.4 µM	2050 nM	16.3 µM	1520 nM	8.91 µM	3210 nM	> 100 µM	4.24 µM	> 100 µM	3820 nM	36 µM	2440 nM	> 100 µM
CN(c1ccccc1)C1C(=O)N(c2ccccc2)C1/C=C/c1ccccc1 (stereo not drawn)		> 100 µM		> 100 µM		> 100 µM				> 100 µM						> 100 µM		> 100 µM		> 100 µM
C=C1Oc2nc3ccccc3c(=O)n2C1(C)C		> 100 µM		> 10 µM		> 100 µM		> 100 µM		> 100 µM		> 100 µM				> 100 µM		> 100 µM		> 100 µM
Cc1cc(C(=O)N2CCN(Cc3ccccc3)CC2)c(C)o1		> 100 µM		> 100 µM		> 100 µM		> 100 µM		> 100 µM		> 100 µM				> 100 µM				> 100 µM
C=C(CS(=O)(=O)c1ccccc1)[P+](c1ccccc1)(c1ccccc1)c1ccccc1		81.6 µM		37.9 µM		65.6 µM		39.4 µM		66 µM		30 µM				> 100 µM				29.1 µM
COc1c(CNC(=O)CCl)cc2[nH]c(C)cc2c1CNC(=O)CCl	12400 nM	86.4 µM	3410 nM	13 µM	4080 nM	20.2 µM			3730 nM	15.6 µM	3170 nM	31.8 µM	2810 nM	20.9 µM	7.38 µM	26.7 µM	10600 nM	27.8 µM	8020 nM	25 µM
